Assay results: US10723699B2 (Hyundai Pharm Co., Ltd., priority 2015, dated 2020)
Entries after “also recorded” stand apart in the source; their conditions may differ.

Legend:
[1] = system: diet-induced obesity (DIO) rat model; assay: Changes in weights in diet-induced obesity (DIO) rat model, 4-week administration; type: in vivo, Sprague Dawley (SD) rats; details: 4 weeks
Description: To simultaneously evaluate both the weight-loss and hypoglycemic effects of the cyclohexene derivative according to the present invention, experiments were carried out, as follows.
(§1) Specifically, male Sprague Dawley (SD) rats (approximately 4 weeks old) in a diet-induced obesity model were fed with a high-fat diet (Lab. Diet Co.) for approximately 10 weeks to induce high-fat diet-induced obesity (DIO). The rats undergoing the high-fat diet were randomly selected, and divided into groups (n=8) for respective administrations. The compounds of Comparative Examples 3 and 4 and Examples 48 and 119 were administered to the divided DIO rats each group for 4 weeks.
(§2) The weights of the DIO rats were measured twice a week during a period of administration of 4 weeks to record a change in the weights. At the end of the 4-week period of administration, a hypoglycemic effect was evaluated using an oral glucose tolerance test (OGTT), as follows.

NCI-H716 cells = assay: Promotion of glucagon-like peptide-1 (GLP-1) secretion (ELISA); type: cell-based, human; details: 1, 10 and 30 μM-treated groups
Description: To evaluate an effect of the cyclohexene derivative according to the present invention on promotion of glucagon-like peptide-1 (GLP-1) secretion, experiments were carried out, as follows.
NCI-H716 cells that were human enterocytes were plated on 12 wells at 1×10^6 cells per well. After 48 hours, the cells were starved in serum-free media for 2 hours, and treated with a varying concentration of siptagliptin that was a dipeptidyl peptidase-IV (DPP-IV) inhibitor, and the compounds of Comparative Example 1 (1, 10, 30 μM), Comparative Example 5 (10 μM), Example 48 (1, 10, 30 μM), and Example 291 (1, 10, 30 μM). After an hour, supernatants are recovered to determine an amount of the secreted GLP-1 peptide. The GLP-1 measurement was performed using an enzyme-linked immunosorbant assay (ELISA; Millipore, EGLP-35K), and the amount of the secreted GLP-1 peptide was indicated by the unit “pM”.

[2] = system: diet-induced obesity (DIO) rat model; assay: OGTT at the end of the 4-week administration in DIO rat model; type: in vivo, Sprague Dawley (SD) rats; details: glucose 2 g/kg 30 minutes later, after 4-week administration
Description: as §1, §2
Specifically, each of the compounds of Comparative Example 3 (300 mg/kg) and Examples 48 and 119 (10, 20, 50 mg/kg) was administered, and 2 g/kg of glucose was orally administered after 30 minutes of the administration. A blood glucose level was determined using an Accu-Chek Active Strip (Roche diagnostic Co.). In this case, the glucose level in blood collected via caudal venipuncture was measured at time points of −30, 0, 20, 40, 60, and 120 minutes after glucose administration. […]

SMILES | changes in weights of rats (weight-loss effect) ([1]; 10, 20, and 50 mg/kg oral) | GLP-1 secretion compared with Comparative Example 1 (NCI-H716 cells) | hypoglycemic effect ([2]; 50 mg/kg oral) | changes in weights of rats (weight-loss effect) ([1]; 300 mg/kg oral) | hypoglycemic effect ([2]; 300 mg/kg oral)
CC(C)c1noc(N2CCC(COc3ccc(C4=CCC(C(=O)N5CC[C@@H](O)C5)CC4)cc3)CC2)n1 (stereo partly drawn) [Example 48, ((R)-3-hydroxypyrrolidin-1-yl)(4-(4-((1-(3-isopropyl-1,2,4-oxadiazol-5-yl)piperidin-4-yl)methoxy)phenyl)cyclohex-3-enyl)methanone] | higher weight-loss effect; also recorded: persistent weight loss was observed for 4 weeks | higher level than that of Comparative Example 1 | approximately 25% |  | 
CN(C)C(=N)NC(=N)N [Comparative Example 3, Metformin] |  |  |  | weight loss was observed for 2 weeks; also recorded: the weight rather increased after 2 weeks | approximately 22%
